This passage reports T/C results from PubChem BioAssay AID328 (DTP/NCI, 2004).

This assay relates to BDF1 mice, P388 leukemia ip, median survival T/C. The assay is described as follows: NCI In Vivo Anticancer Drug Screen. Data for tumor model P388 Leukemia (intraperitoneal) in B6D2F1 (BDF1) mice. Conditions: endpoint: median survival time, higher = longer survival. In outline:
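Survival ratio, drug arm over vehicle arm, in mice with a transplanted tumour.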

Setting [1] is: dose: 100.0 mg/kg/injection, schedule: Q04DX003 (ip), vehicle: saline with Tween-80.
[2] abbreviates: dose: 200.0 mg/kg/injection, schedule: Q04DX003 (ip), vehicle: saline with Tween-80.
Where [3] appears, read: dose: 100.0 mg/kg/injection, schedule: Q04DX003 (ip), vehicle: Klucel (hydroxypropylcellulose) (HPC).
Setting [4] is: dose: 200.0 mg/kg/injection, schedule: Q04DX003 (ip), vehicle: Klucel (hydroxypropylcellulose) (HPC).
Setting [5] is: dose: 400.0 mg/kg/injection, schedule: Q04DX003 (ip), vehicle: saline with Tween-80.
Where [6] appears, read: dose: 50.0 mg/kg/injection, schedule: Q01DX009 (ip), vehicle: saline with Tween-80.
[7] abbreviates: dose: 100.0 mg/kg/injection, schedule: Q01DX009 (ip), vehicle: saline with Tween-80.
The mark [8] stands for this setting: dose: 200.0 mg/kg/injection, schedule: Q01DX009 (ip), vehicle: saline with Tween-80.
Setting [9] is: dose: 400.0 mg/kg/injection, schedule: Q01DX009 (ip), vehicle: saline with Tween-80.
Where [10] appears, read: dose: 6.25 mg/kg/injection, schedule: Q01DX009 (ip), vehicle: saline with Tween-80.
The mark [11] stands for this setting: dose: 100.0 mg/kg/injection, schedule: Q04DX003 (ip), vehicle: saline.
[12] abbreviates: dose: 200.0 mg/kg/injection, schedule: Q04DX003 (ip), vehicle: saline.
The mark [13] stands for this setting: dose: 400.0 mg/kg/injection, schedule: Q04DX003 (ip), vehicle: saline.

Inconclusive results and toxic doses are left out.

For the molecule `COc1cc2c(c(OC)c1OC)-c1ccc(N)c(=O)cc1[C@@H](NC(C)=O)CC2`, the T/C (dose: 0.5 mg/kg/injection, schedule: Q01DX010 (ip), vehicle: saline) was 113 % of control and the T/C (dose: 2.0 mg/kg/injection, schedule: Q01DX010 (ip), vehicle: saline) was 118 % of control.
On to `CS(=O)(=O)OCCN(CCOS(C)(=O)=O)c1ccc(C=Nc2ccc3oc(=O)ccc3c2)cc1`, for which the T/C is, setting by setting: under setting [1], 212 % of control; (dose: 132.0 mg/kg/injection, schedule: Q04DX003 (ip), vehicle: saline with Tween-80) 165 % of control; under setting [2], 243 % of control.
Turning to `Nc1nc(SCc2ccc([N+](=O)[O-])cc2)c2[nH]cnc2n1`, the T/C was 110 % of control (dose: 100.0 mg/kg/injection, schedule: Q04DX003 (ip), vehicle: saline sonified); 110 % of control (dose: 200.0 mg/kg/injection, schedule: Q04DX003 (ip), vehicle: saline sonified); 100 % of control (dose: 400.0 mg/kg/injection, schedule: Q04DX003 (ip), vehicle: saline sonified).
With `Cc1cc2c(cc1C)NC(=O)CC(=O)N2`, the T/C is 100 % of control under setting [3]; 86 % of control under setting [4]; 86 % of control (dose: 400.0 mg/kg/injection, schedule: Q04DX003 (ip), vehicle: Klucel (hydroxypropylcellulose) (HPC)).
For `O=C(O)C(Br)C(Br)c1ccccc1` (stereo not drawn), the T/C reads like this: under setting [1], 100 % of control; under setting [2], 100 % of control; under setting [5], 109 % of control.
Consider `SC1(SC2(S)CCCCC2)CCCCC1`, for which the T/C under setting [6] was 100 % of control, the T/C under setting [7] was 100 % of control and the T/C under setting [8] was 100 % of control.
As to `Cc1ccc(S(=O)(=O)N(C)SCl)cc1` (tested in a mixture with another compound), where the note is “dose: 100.0 mg/kg/injection, schedule: Q01DX009 (ip), vehicle: other”, the T/C is 121 % of control.
For the molecule `COc1ccc(NC(=S)N(C)C)cc1`, the T/C by setting is: under setting [7], 100 % of control; under setting [8], 109 % of control; under setting [9], 109 % of control.
With `Cc1cc(C)c(CCl)cc1CCl`, the T/C is, setting by setting: (dose: 3.0 mg/kg/injection, schedule: Q01DX009 (ip), vehicle: saline with Tween-80) 104 % of control; (dose: 4.5 mg/kg/injection, schedule: Q01DX009 (ip), vehicle: saline with Tween-80) 116 % of control; under setting [10], 118 % of control; (dose: 16.5 mg/kg/injection, schedule: Q01DX009 (ip), vehicle: saline with Tween-80) 150 % of control; (dose: 37.5 mg/kg/injection, schedule: Q01DX009 (ip), vehicle: saline with Tween-80) 120 % of control.
Consider `O=C1OC(=O)C2C1C(c1ccc([N+](=O)[O-])cc1)N1C3C(=O)OC(=O)C3C(c3ccc([N+](=O)[O-])cc3)N21` (stereo not drawn), for which the T/C was 97 % of control under setting [6], 99 % of control under setting [7] and 92 % of control under setting [8].
For `CCCOC(=O)C(F)C(Br)C(=O)OCCC` (stereo not drawn) the same measures were 89 % of control, 99 % of control and 118 % of control.
For the molecule `CC(C)n1cnc2c(=S)nc[nH]c21`, the T/C under setting [7] is 91 % of control, the T/C under setting [1] was 100 % of control, the T/C under setting [2] was 104 % of control and the T/C under setting [5] was 113 % of control.
On to `O=C1CCC(N2C(=O)c3ccccc3C2=O)C(=O)N1` (stereo not drawn), for which the T/C was 96 % of control (dose: 100.0 mg/kg/injection, schedule: Q01DX010 (ip), vehicle: saline); 96 % of control (dose: 200.0 mg/kg/injection, schedule: Q01DX010 (ip), vehicle: saline); 92 % of control (dose: 400.0 mg/kg/injection, schedule: Q01DX010 (ip), vehicle: saline); 92 % of control (dose: 800.0 mg/kg/injection, schedule: Q01DX010 (ip), vehicle: saline).
For `COc1cccc(/C=N/NC(=O)c2cc(C)nc3ccc(Br)cc23)c1O`, the T/C by setting is: under setting [6], 103 % of control; under setting [7], 103 % of control; under setting [8], 100 % of control.
Turning to `CCSC(C)C`, the T/C reads like this: under setting [11], 100 % of control; under setting [12], 104 % of control; under setting [13], 95 % of control.
`O=C(C(Br)C(Br)c1ccccc1)C(Br)C(Br)c1ccccc1` (stereo not drawn): the T/C was 104 % of control under setting [7], 104 % of control under setting [8] and 100 % of control under setting [9].
On to `OC(Cc1ccc2ccccc2n1)C(Cl)(Cl)Cl` (stereo not drawn), for which the T/C was 95 % of control (dose: 3.12 mg/kg/injection, schedule: Q01DX009 (ip), vehicle: saline with Tween-80); 100 % of control under setting [10]; 100 % of control (dose: 12.5 mg/kg/injection, schedule: Q01DX009 (ip), vehicle: saline with Tween-80); 100 % of control (dose: 12.5 mg/kg/injection, schedule: Q04DX003 (ip), vehicle: saline with Tween-80); 92 % of control (dose: 25.0 mg/kg/injection, schedule: Q01DX009 (ip), vehicle: saline with Tween-80); 105 % of control (dose: 25.0 mg/kg/injection, schedule: Q04DX003 (ip), vehicle: saline with Tween-80). Moreover, the T/C under setting [6] is 90 % of control; the T/C (dose: 50.0 mg/kg/injection, schedule: Q04DX003 (ip), vehicle: saline with Tween-80) is 100 % of control; the T/C under setting [1] is 91 % of control.
With `Cc1cc(C)c(S(=O)(=O)OCCCl)c(C)c1`, the T/C is, setting by setting: (dose: 50.0 mg/kg/injection, schedule: Q01DX005 (ip), vehicle: Klucel (hydroxypropylcellulose) (HPC)) 106 % of control; (dose: 100.0 mg/kg/injection, schedule: Q01DX005 (ip), vehicle: Klucel (hydroxypropylcellulose) (HPC)) 95 % of control.
On to `O=C1CCN2C=CC=CC2=N1`, for which the T/C runs as follows: under setting [11], 104 % of control; under setting [12], 100 % of control; under setting [13], 95 % of control.
For `COC(=O)c1ccc(=O)c2nc3/c(=C/O)c(O)cc(=O)c3[nH]c12`, the T/C is 101 % of control (dose: 12.5 micrograms/kg/injection, schedule: Q01DX009 (ip), vehicle: Klucel (hydroxypropylcellulose) (HPC)); 97 % of control (dose: 25.0 micrograms/kg/injection, schedule: Q01DX009 (ip), vehicle: Klucel (hydroxypropylcellulose) (HPC)); 97 % of control (dose: 50.0 micrograms/kg/injection, schedule: Q01DX009 (ip), vehicle: Klucel (hydroxypropylcellulose) (HPC)); 100 % of control (dose: 99.0 micrograms/kg/injection, schedule: Q01DX009 (ip), vehicle: saline); 109 % of control (dose: 150.0 micrograms/kg/injection, schedule: Q01DX009 (ip), vehicle: saline); 113 % of control (dose: 225.0 micrograms/kg/injection, schedule: Q01DX009 (ip), vehicle: saline).
In the case of `CC(C)c1ccc(C(=O)C2CC2)cc1`, the T/C (dose: 25.0 mg/kg/injection, schedule: Q04DX003 (ip), vehicle: Klucel (hydroxypropylcellulose) (HPC)) was 100 % of control; the T/C (dose: 50.0 mg/kg/injection, schedule: Q01DX009 (ip), vehicle: Klucel (hydroxypropylcellulose) (HPC)) is 100 % of control; the T/C (dose: 50.0 mg/kg/injection, schedule: Q04DX003 (ip), vehicle: Klucel (hydroxypropylcellulose) (HPC)) was 87 % of control; the T/C (dose: 100.0 mg/kg/injection, schedule: Q01DX009 (ip), vehicle: Klucel (hydroxypropylcellulose) (HPC)) is 113 % of control; the T/C under setting [3] is 100 % of control; the T/C (dose: 200.0 mg/kg/injection, schedule: Q01DX009 (ip), vehicle: Klucel (hydroxypropylcellulose) (HPC)) is 113 % of control. Moreover, the T/C under setting [4] is 95 % of control.
With `O=C(CCC[N+](=O)[O-])c1ccccc1`, the T/C is 113 % of control (dose: 50.0 mg/kg/injection, schedule: Q01DX005 (ip), vehicle: saline with Tween-80); 113 % of control (dose: 100.0 mg/kg/injection, schedule: Q01DX005 (ip), vehicle: saline with Tween-80); 99 % of control (dose: 200.0 mg/kg/injection, schedule: Q01DX005 (ip), vehicle: saline with Tween-80).
Regarding `O=C1N(c2ccccc2)CCC12CCNCC2`, the T/C is, setting by setting: (dose: 50.0 mg/kg/injection, schedule: Q01DX009 (ip), vehicle: saline) 94 % of control; (dose: 100.0 mg/kg/injection, schedule: Q01DX009 (ip), vehicle: saline) 94 % of control.
Regarding `CCCCSC#N`, the T/C is 94 % of control (dose: 6.25 mg/kg/injection, schedule: Q01DX001 (ip), vehicle: saline) and 100 % of control (dose: 12.5 mg/kg/injection, schedule: Q01DX001 (ip), vehicle: saline).
